Assay results taken from ChEMBL document CHEMBL5576145, “Domoic Acid as a Lead for the Discovery of the First Selective Ligand for Kainate Receptor Subtype 5 (GluK5)” (J Med Chem, 2024).

How the values were obtained:
[1] = biological target: T1, Glutamate receptor ionotropic, kainate 5 (Mus musculus) (UniProt Q61626); experiment: Displacement of [3H]-kainate from mouse GluK5 expressed in Sf9 cell membrane assessed as remaining activity at 10 uM incubated for 2 hrs by scintillation counting method relative to control; format: cell membranes
T1 sequence (whole entry): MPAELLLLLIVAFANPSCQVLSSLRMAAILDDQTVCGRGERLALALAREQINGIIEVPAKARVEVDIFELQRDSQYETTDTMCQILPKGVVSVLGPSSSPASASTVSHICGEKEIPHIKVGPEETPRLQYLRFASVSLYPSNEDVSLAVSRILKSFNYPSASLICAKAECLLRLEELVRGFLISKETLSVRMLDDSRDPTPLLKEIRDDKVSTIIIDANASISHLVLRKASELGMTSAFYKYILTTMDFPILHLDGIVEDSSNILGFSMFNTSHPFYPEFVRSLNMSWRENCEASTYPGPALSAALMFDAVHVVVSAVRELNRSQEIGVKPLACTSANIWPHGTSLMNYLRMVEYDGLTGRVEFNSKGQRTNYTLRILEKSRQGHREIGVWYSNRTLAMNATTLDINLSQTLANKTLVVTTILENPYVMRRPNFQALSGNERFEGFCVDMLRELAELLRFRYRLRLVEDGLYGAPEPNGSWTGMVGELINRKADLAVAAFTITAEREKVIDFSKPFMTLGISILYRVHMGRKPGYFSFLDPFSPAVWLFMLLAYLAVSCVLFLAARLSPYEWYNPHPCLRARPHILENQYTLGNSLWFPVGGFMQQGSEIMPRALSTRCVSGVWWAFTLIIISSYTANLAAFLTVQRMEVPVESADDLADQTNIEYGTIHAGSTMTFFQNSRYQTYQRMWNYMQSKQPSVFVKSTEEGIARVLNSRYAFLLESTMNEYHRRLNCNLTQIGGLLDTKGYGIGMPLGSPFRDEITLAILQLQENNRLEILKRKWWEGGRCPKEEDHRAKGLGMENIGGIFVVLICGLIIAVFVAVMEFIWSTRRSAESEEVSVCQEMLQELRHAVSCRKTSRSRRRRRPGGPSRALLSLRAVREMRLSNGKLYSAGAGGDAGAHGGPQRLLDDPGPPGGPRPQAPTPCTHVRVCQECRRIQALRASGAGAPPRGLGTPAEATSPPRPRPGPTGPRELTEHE

[2] = biological target: Glutamate receptor ionotropic, kainate 3 (Rattus norvegicus) (UniProt P42264); experiment: Displacement of [3H]-KA from rat GluK3 assessed as percentage of radioligand binding at 10 uM relative to control
[3] = biological target: Glutamate receptor ionotropic, kainate 1 (Rattus norvegicus) (UniProt P22756); experiment: Displacement of [3H]-NF608 from rat GluK1 assessed as percent of radioligand binding at 10 uM relative to control
[4] = biological target: Glutamate receptor ionotropic, kainate 2 (Rattus norvegicus) (UniProt P42260); experiment: Displacement of [3H]-KA from rat GluK2 assessed as percentage of radioligand binding at 10 uM relative to control
[5] = Displacement of [3H]-KA from KA in rat cortical synaptosomes incubated for 60 mins by TopCount microplate scintillation counting method; format: subcellular, Cortex, Synaptosome
[6] = biological target: Glutamate NMDA receptor (Rattus norvegicus) (UniProt P35439+Q00959+Q00960+Q00961+Q62645+Q8VHN2+Q9R1M7); experiment: Displacement of [3H]CGP39653 from NMDA receptor in rat cortical synaptosomes assessed as remaining activity at 10 uM incubated for 60 mins by Topcount microplate scintillation counting method relative to control; format: subcellular; conditions: Cortex, Synaptosome
[7] = biological target: T2, Glutamate receptor ionotropic, kainate 5 (Mus musculus, UniProt Q61626); experiment: Displacement of [3H]-kainate from mouse GluK5 expressed in Sf9 cell membrane incubated for 2 hrs by scintillation counting method; format: cell membranes
T2 sequence (Q61626 whole entry): T1 sequence (whole entry)

[8] = biological target: Glutamate receptor 4 (Rattus norvegicus) (UniProt P19493); experiment: Displacement of [3H]-AMPA from AMPA in rat cortical synaptosomes assessed as remaining activity at 10 uM incubated for 30 mins by TopCount microplate scintillation counting method relative to control; format: subcellular; conditions: Cortex, Synaptosome
Glutamate receptor 4 [9] = biological target: T3, Glutamate receptor 4 (Rattus norvegicus, UniProt P19493); experiment: Displacement of [3H]-AMPA from AMPA in rat synaptic membrane; format: subcellular, Synaptosome
[10] = Displacement of [3H]-Kainic acid from KA in rat synaptic membrane; format: subcellular, Synaptosome
[11] = biological target: Glutamate receptor ionotropic, kainate 2 (Rattus norvegicus, UniProt P42260); experiment: Displacement of [3H]-KA from rat GluK2
[12] = biological target: Glutamate receptor ionotropic, kainate 3 (Rattus norvegicus, UniProt P42264); experiment: Displacement of [3H]-KA from rat GluK3
[13] = Selectivity ratio of Ki for displacement of [3H]-NF608 from rat GluK1 to Ki for displacement of [3H]-kainate from mouse GluK5
[14] = Selectivity ratio of Ki for displacement of [3H]-KA from rat GluK3 to Ki for displacement of [3H]-kainate from mouse GluK5
[15] = Selectivity ratio of Ki for displacement of [3H]-KA from rat GluK2 to Ki for displacement of [3H]-kainate from mouse GluK5
Glutamate NMDA receptor = experiment: Displacement of [3H]CGP39653 from NMDA receptor in rat cortical synaptosomes incubated for 60 mins by Topcount microplate scintillation counting method; format: subcellular, Cortex, Synaptosome
Glutamate receptor 4 [16] = biological target: T3, Glutamate receptor 4; experiment: Displacement of [3H]-AMPA from AMPA in rat brain membrane preincubated for 15 mins followed by [3H]-AMPA addition and measured after 40 mins by scintillation counting method; format: cell membranes
[17] = Displacement of [3H]-Kainic acid from KA in rat brain membrane preincubated for 15 mins followed by [3H]-Kainic acid addition and measured after 1 hr by scintillation counting method; format: cell membranes
Neuron = experiment: Agonist activity at GluK2/K5 in mouse hippocampal neurons assessed as change in holding current at 10 uM by electrophysiology; format: cell-based; conditions: filed as agonist
Glutamate receptor 4 [18] = biological target: T3, Glutamate receptor 4; experiment: Displacement of [3H]-AMPA from AMPA in rat cortical synaptosomes incubated for 30 mins by TopCount microplate scintillation counting method; format: subcellular, Cortex, Synaptosome
[19] = biological target: Glutamate receptor ionotropic, kainate 1 (Rattus norvegicus, UniProt P22756); experiment: Displacement of [3H]-NF608 from rat GluK1
Rattus norvegicus = species: Rattus norvegicus; experiment: Displacement of [3H]-KA from KA in rat cortical synaptosomes assessed as remaining activity at 10 uM incubated for 60 mins by TopCount microplate scintillation counting method relative to control; format: subcellular; conditions: Cortex, Synaptosome

Sequence of Glutamate receptor ionotropic, kainate 1 (P22756 whole entry): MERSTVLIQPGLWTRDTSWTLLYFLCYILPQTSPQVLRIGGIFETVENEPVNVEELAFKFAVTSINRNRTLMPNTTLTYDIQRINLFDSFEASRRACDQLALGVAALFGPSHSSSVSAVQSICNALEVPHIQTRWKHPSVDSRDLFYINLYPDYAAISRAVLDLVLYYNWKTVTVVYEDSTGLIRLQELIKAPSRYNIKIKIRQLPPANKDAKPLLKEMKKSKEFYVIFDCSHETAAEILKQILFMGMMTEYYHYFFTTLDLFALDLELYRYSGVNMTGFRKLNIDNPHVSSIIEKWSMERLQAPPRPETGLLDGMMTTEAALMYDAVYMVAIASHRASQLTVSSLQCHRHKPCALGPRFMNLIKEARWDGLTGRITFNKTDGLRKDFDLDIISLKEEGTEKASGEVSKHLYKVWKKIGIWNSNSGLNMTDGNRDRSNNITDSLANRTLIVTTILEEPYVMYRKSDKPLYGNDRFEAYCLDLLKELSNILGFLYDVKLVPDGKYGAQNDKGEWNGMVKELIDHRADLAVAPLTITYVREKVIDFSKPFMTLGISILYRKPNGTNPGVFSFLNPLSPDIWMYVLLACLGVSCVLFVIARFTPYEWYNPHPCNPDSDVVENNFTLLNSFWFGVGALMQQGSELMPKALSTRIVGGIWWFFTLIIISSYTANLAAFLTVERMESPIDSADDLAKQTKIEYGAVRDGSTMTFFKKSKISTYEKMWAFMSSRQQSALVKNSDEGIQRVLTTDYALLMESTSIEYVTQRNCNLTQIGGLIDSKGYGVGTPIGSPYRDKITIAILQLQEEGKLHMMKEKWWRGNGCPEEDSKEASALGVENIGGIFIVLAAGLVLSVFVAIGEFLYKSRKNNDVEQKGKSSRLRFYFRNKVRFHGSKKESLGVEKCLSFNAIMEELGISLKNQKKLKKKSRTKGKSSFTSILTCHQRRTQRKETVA
Sequence of Glutamate receptor ionotropic, kainate 1 (Rattus norvegicus) (P22756 whole entry): as above
Sequence of Glutamate receptor ionotropic, kainate 2 (P42260 whole entry): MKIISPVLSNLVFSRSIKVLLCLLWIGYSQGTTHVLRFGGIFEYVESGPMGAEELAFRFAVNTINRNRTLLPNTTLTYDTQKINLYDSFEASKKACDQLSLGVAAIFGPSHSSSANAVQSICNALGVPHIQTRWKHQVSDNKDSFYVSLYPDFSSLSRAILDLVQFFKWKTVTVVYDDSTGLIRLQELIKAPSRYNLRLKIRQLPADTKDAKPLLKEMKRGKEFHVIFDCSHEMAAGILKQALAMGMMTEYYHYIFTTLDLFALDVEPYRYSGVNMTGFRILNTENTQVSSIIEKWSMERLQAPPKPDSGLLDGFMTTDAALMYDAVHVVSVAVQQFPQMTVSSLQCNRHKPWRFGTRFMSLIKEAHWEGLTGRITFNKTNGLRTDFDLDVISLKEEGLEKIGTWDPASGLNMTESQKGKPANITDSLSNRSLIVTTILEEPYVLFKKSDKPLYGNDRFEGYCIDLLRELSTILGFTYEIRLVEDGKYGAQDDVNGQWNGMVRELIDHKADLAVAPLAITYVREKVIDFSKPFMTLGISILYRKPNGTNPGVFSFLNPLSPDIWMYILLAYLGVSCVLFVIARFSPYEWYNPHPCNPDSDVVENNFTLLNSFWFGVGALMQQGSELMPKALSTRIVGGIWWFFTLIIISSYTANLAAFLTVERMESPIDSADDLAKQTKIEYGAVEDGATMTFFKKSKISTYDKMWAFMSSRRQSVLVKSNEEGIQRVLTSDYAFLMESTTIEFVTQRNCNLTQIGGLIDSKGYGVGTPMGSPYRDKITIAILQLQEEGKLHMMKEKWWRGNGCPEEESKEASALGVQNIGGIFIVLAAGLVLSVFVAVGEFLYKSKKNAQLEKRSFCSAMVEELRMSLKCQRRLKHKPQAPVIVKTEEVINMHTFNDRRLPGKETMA
Sequence of Glutamate receptor ionotropic, kainate 2 (Rattus norvegicus) (P42260 whole entry): as above
Sequence of Glutamate receptor ionotropic, kainate 3 (Rattus norvegicus) (P42264 whole entry): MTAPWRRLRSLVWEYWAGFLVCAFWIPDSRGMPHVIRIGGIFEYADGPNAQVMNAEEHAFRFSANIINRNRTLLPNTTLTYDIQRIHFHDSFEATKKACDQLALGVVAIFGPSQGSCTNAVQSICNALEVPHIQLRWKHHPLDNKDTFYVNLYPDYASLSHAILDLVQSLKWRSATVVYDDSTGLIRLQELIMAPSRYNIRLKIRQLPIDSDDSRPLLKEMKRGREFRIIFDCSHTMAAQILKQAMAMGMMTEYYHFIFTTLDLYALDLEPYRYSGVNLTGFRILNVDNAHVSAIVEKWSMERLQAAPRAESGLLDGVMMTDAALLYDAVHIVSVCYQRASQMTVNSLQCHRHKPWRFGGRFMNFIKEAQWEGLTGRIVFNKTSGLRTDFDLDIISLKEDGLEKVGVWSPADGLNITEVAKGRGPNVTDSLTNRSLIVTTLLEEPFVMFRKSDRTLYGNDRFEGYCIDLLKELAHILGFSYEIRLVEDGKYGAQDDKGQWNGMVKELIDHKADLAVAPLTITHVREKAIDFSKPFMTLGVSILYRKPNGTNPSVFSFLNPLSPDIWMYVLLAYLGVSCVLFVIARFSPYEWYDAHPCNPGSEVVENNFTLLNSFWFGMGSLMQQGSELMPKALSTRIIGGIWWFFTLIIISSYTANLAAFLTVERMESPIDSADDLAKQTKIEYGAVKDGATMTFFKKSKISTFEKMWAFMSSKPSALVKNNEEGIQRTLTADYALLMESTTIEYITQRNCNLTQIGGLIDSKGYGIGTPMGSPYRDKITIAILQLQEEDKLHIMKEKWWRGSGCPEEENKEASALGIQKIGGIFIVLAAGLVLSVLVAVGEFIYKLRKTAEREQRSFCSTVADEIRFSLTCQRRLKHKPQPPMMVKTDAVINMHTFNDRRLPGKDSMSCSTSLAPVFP
Sequence of Glutamate receptor ionotropic, kainate 3 (P42264 whole entry): as above
T3 sequence (P19493 whole entry): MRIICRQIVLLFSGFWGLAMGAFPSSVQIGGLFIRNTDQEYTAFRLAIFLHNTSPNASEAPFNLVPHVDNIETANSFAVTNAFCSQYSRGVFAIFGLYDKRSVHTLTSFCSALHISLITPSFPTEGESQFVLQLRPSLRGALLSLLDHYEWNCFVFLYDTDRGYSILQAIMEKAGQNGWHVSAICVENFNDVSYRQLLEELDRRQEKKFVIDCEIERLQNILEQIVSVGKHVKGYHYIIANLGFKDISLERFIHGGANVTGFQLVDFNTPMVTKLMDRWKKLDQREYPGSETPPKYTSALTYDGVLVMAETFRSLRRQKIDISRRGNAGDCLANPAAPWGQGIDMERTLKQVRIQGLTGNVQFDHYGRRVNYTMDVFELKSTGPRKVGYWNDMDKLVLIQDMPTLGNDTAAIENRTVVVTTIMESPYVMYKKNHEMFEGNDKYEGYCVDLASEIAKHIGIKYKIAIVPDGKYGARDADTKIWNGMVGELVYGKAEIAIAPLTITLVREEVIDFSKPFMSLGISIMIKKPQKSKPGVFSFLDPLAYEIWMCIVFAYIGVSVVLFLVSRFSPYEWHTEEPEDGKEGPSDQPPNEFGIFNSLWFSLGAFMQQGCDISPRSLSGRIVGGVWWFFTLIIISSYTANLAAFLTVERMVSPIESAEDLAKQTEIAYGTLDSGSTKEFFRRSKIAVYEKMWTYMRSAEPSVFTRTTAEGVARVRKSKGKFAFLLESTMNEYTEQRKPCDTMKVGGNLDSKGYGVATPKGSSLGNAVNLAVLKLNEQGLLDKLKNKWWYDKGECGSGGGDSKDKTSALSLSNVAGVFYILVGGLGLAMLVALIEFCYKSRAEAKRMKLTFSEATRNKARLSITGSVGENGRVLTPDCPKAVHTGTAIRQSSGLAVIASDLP
Sequence of Glutamate receptor 4 (Rattus norvegicus) (P19493 whole entry): as above

Structure (SMILES)	Activity [2] [%]	Activity [3] [%]	Activity [4] [%]	IC50 [5] [µM]	Activity [6] [%]	Ki [7] [nM]	Activity [8] [%]	also measured
Nc1cccc(-c2cn([C@H]3CN[C@H](C(=O)O)[C@H]3CC(=O)O)nn2)c1	93	97	102			3250		
C=C(C)[C@H]1CN[C@H](C(=O)O)[C@H]1CC(=O)O [KAINIC ACID]								IC50 (Glutamate receptor 4 [9]): 1900 nM; IC50 [10]: 12 nM
O=C(O)C[C@@H]1[C@@H](C(=O)O)NC[C@@H]1n1nncc1-c1cccc(C(F)(F)F)c1	90	92	76	5.1		2150	80	Ki (Glutamate NMDA receptor): 101 µM
C/C(=C\C=C\[C@@H](C)C(=O)O)[C@H]1CN[C@H](C(=O)O)[C@H]1CC(=O)O [DOMORIC ACID]								IC50 (Glutamate receptor 4 [16]): 12 µM; IC50 [17]: 940 nM
C/C(=C\C=C/[C@@H](C)C(=O)O)[C@H]1CN[C@H](C(=O)O)[C@H]1CC(=O)O								IC50 (Glutamate receptor 4 [16]): 32 µM; Activity (Neuron): 2940 pA; IC50 [17]: 1400 nM
O=C(O)C[C@@H]1[C@@H](C(=O)O)NC[C@@H]1n1ccnn1				1.3				Ki (Glutamate NMDA receptor): > 100 µM; Ki [11]: 2.6 µM; IC50 (Glutamate receptor 4 [18]): 9.5 µM; Ki [12]: 0.28 µM; Ki [19]: 3.3 µM
C/C(=C/C=C\[C@@H](C)C(=O)O)[C@H]1CN[C@H](C(=O)O)[C@H]1CC(=O)O								IC50 (Glutamate receptor 4 [16]): 17 µM; IC50 [17]: 28 nM
O=C(O)C[C@@H]1[C@@H](C(=O)O)NC[C@@H]1n1nncc1-c1ccccn1						258		Ki [11]: 7.76 µM; Ki [12]: 3.75 µM; Ki [19]: 11.5 µM
C[C@H](CCC[C@@H](C)[C@H]1CN[C@H](C(=O)O)[C@H]1CC(=O)O)C(=O)O								IC50 (Glutamate receptor 4 [16]): > 100 µM; IC50 [17]: 27000 nM

Second part, led by results:

Activity [2] [%]	Activity [3] [%]	Activity [4] [%]	IC50 [5] [µM]	Activity [6] [%]	Ki [7] [nM]	Activity [8] [%]	Structure (SMILES)	also measured
83	95	92					CCc1ccc(-c2cnnn2[C@H]2CN[C@H](C(=O)O)[C@H]2CC(=O)O)cc1	Activity [1]: 45%
90	94	97	35	98	5570	98	O=C(O)C[C@@H]1[C@@H](C(=O)O)NC[C@@H]1n1nncc1CCc1ccccc1	
	93		5.1	101	499	80	O=C(O)C[C@@H]1[C@@H](C(=O)O)NC[C@@H]1n1nncc1-c1ccccc1	Ki [11]: 36 µM; Ki [12]: 21.1 µM; Ratio Ki [13]: > 40; Ratio Ki [14]: > 40; Ratio Ki [15]: > 40
79	79	85		66		85	O=C(O)C[C@@H]1[C@@H](C(=O)O)NC[C@@H]1n1nncc1C(=O)O	Activity [1]: 89%; Activity (Rattus norvegicus): 80%
80	98	92					O=C(O)C[C@@H]1[C@@H](C(=O)O)NC[C@@H]1n1nncc1-c1cccnc1	Activity [1]: 47%
84	94	76	22	102	7970	86	O=C(O)C[C@@H]1[C@@H](C(=O)O)NC[C@@H]1n1nncc1CO	
			1.73	102	420	73	CC(CCc1cnnn1[C@H]1CN[C@H](C(=O)O)[C@H]1CC(=O)O)C(=O)O (stereo partly specified)	Ki [11]: 8.66 µM; Ki [12]: 5.9 µM; Ratio Ki [13]: 14; Ratio Ki [14]: 14; Ki [19]: 11.7 µM; Ratio Ki [15]: 14
